Reference: patent publication US11382907B2, “Methods and compositions for treating aging-associated impairments using CCR3-inhibitors” (Alkahest, Inc., priority 2017, dated 2022)

Legend:
[1] = test system: twenty-four-month-old C57 mice; experiment: Rotarod test for motor coordination in aged mice; assay type: in vivo; conditions: 4 weeks continuous infusion by osmotic pump
Protocol: The mice were trained in the rotarod for 3 trials up to 100 seconds each, the rotarod being a test of motor coordination. Success or failure was recorded on the last trial, with success defined by a latency to fall of >90 seconds. A binomial test was conducted to compare success rates between control and compound-treated mice.
Twenty-four-month-old C57 mice were treated for 4 weeks with continuous infusion of Compound 1 or vehicle by Alzet osmotic pump, which were implanted to continuously deliver the two treatments.
Treatment Groups: • Treatment Group 1, Old Controls: Aged C57BL/6 mice (n=15), aged 23 months, received infusion of vehicle by Alzet mini-pump, model 2002 (0.5 uL/hr), for four weeks with one replacement. • Treatment Group 2, Compound 1 (dose 2) in Old: Aged C57BL/6 mice (n=15), aged 23 months, received infusion of ˜50 mg/ml Compound 1 by Alzet mini-pump, model 2002 (0.5 uL/hr), for four weeks with one replacement.

[2] = test system: two-month-old C57Bl/6 mice treated with rmCCL11; experiment: Barnes maze test in young mice given recombinant mouse CCL11; assay type: in vivo; conditions: 2-month-old mice; rmCCL11 i.p.; Compound 1 30 mg/kg p.o. b.i.d.
Text: A modified Barnes maze was used to assess spatial working/episodic like learning and memory. The Barnes maze apparatus consists of a 122 cm diameter circular platform with 40 escape holes, each with a diameter of 5 cm placed along three rings of varying distances from the center of the platform. An escape box is attached to one of the holes and all holes are left uncovered. Bright lights and a fan are trained on the maze to provide adverse stimuli to encourage escape. Visual cues are placed on all four sides of the maze. Mice are given a series of 4 or 5 trials with inter-trial intervals of approximately 10 min, and the maximum duration of each trial is 90 or 120 sec. For each trial, mice are placed in the center of the maze. After 10 seconds, mice are allowed to explore, and the trial is ended if the mouse has found and entered an escape box before the end of the trial. Mice that cannot find the escape box are led to it and allowed to enter and given 30 sec to remain before being returned to its home cage. Training is done for 4 days. Data that is recorded and analyzed include velocity, escape latency, and distance moved.
Two-month-old C57Bl/6 mice were dosed with either vehicle control or Compound 1 by oral gavage twice daily for 18 days. During the last week of treatment, mice were subjected to behavior testing prior to perfusion on the last day of treatment. […]

Cc1cc(C(=O)N(C)C)cc(NC(=O)[C@H]2CCC(=O)N2C2CCN(Cc3ccc(Cl)c(C)c3)CC2)n1 [Compound 1]
proportion of mice able to stay on the rod for longer than 90 seconds ([1]; control 20%): 47%
Rotarod success versus vehicle (binomial test) ([1]; success = latency to fall >90 seconds): succeeded more than vehicle-treated mice
memory in the Barnes maze [2]: significantly improved memory performance
